A value given as a limit tells only on which side of the number the result lay.

Consider three compounds from US11096906B2, “Pharmaceutical composition for preventing or treating Alzheimer's disease” (SFCBIO. CO., LTD., priority 2015, dated 2021).

What all share (format): cell-based
The test system of one series is sAPPβ protein. Kind of series: Amount of sAPPβ protein released from APPwt-CHO cells, by western blot. As to conditions: for reduction of the amount of sAPPβ protein as compared to the control group: APPwt-CHO cells. On the procedure:
(§1) In order to evaluate the ability of suppressing β-amyloid formation of Compounds 1-3, APPwt-CHO cells obtained by overexpressing APP in CHO cells were used and the amount of the sAPPβ protein cleaved by β-secretase and released out of the cells was measured by western blot. When the APP precursor protein is cleaved first by β-secretase, sAPPβ is released out of the cell. The protein remaining attached to the membrane is cleaved again by γ-secretase to produce β-amyloid. Accordingly, the amount of β-secretase and sAPPβ is proportional to the amount of the produced β-amyloid. Therefore, the amount of the two proteins was measured by western blot.
A general note: A western blot detects proteins with antibodies after separation by electrophoresis.

A further series deals with β-secretase. As to the kind of experiment: Amount of β-secretase protein in APPwt-CHO cells, by western blot. The note with it: for reduction of the amount of β-secretase protein as compared to the control group: APPwt-CHO cells. The method, then:
as §1

A further series has as its system APP*t-CHO cells. As to the kind of experiment: MTT-based cytotoxicity assay. The method, then:
The cytotoxicity of Compounds 1-3 separated and identified in Examples 1-5 was investigated by MTT-based cytotoxicity assay. APP*t-CHO cells treated with Compounds 1-3 were cultured for 24 hours. After adding a 5 mg/mL MTT solution, the cells were cultured for 4 hours. After removing the culture medium and lysing the cells for 30 minutes by adding DMSO, absorbance was measured at 540 nm using the Emax precision microplate reader (Molecular Devices, CA, USA).
On the technique in general: Tetrazolium assays rely on reduction of a dye to a coloured formazan, in cell work by metabolically active cells.

Where [1] appears, read: 100 μg/mL, cells cultured 24 hours, MTT.

As for `CCCC(=O)c1c(O)cc(O)cc1O` [Compound 1, butyrylphloroglucinol], the “reduction of the amount of sAPPβ protein as compared to the control group” value (“reduction of the amount of sAPPβ protein” for short) in the series with sAPPβ protein (10 μg/mL) was “about 20%”; with sAPPβ protein (20 μg/mL), “about 70%”. Also, the results for the “reduction of the amount of β-secretase protein as compared to the control group” value in the series with β-secretase (10 μg/mL) and in the series with β-secretase (20 μg/mL) were “about 10%” and “about 30%”, respectively. Besides, in the series with APP*t-CHO cells (setting [1]), the cytotoxicity entry was “no toxicity”.

Regarding `CCC(=O)c1c(O)cc(O)c(C)c1O` [Compound 2, 2-propionyl-4-methylphloroglucinol], the “reduction of the amount of sAPPβ protein” value in the series with sAPPβ protein (20 μg/mL) was “about 40%”; in the series with sAPPβ protein (100 μg/mL), “about 80%”. Also, the “reduction of the amount of β-secretase protein as compared to the control group” value in the series on β-secretase (20 μg/mL) is recorded as “about 40%”; with β-secretase (100 μg/mL) it was “about 60%”. In the series with APP*t-CHO cells (setting [1]), the cytotoxicity result is “no toxicity”.

Consider `CCCC(=O)c1c(O)cc(O)c(C)c1O` [Compound 3, 2-butyryl-4-methylphloroglucinol], for which the “reduction of the amount of sAPPβ protein” value in the series with sAPPβ protein (10 μg/mL) is listed as “about 40%”; with sAPPβ protein (20 μg/mL), “about 80%”. Moreover, the “reduction of the amount of sAPPβ (in words)” value with sAPPβ protein (20 μg/mL) is given as “almost perfectly”. Moreover, the “decrease of the amount of β-secretase (in words)” value in the series on β-secretase is on record as “effectively decreased”. The “reduction of the amount of β-secretase protein as compared to the control group” value in the series on β-secretase (10 μg/mL) was “about 20%”; in the series with β-secretase (20 μg/mL), “about 30%”. Moreover, the figures for the cytotoxicity result with APP*t-CHO cells (20 μg/mL) and in the series on APP*t-CHO cells (setting [1]) were “no toxicity was observed” and “showed toxicity”, respectively. Further, the “concentration at which toxicity was shown” value in the series on APP*t-CHO cells (cells cultured 24 hours, MTT) is no less than 30000 ng/mL.
